From US6498862B1 (priority 1999, dated 2002)

Test system: B. cepacia biofilm
Assay type: cell-based, Burkholderia cepacia

In the case of `O=[O+][O-]` [ozone, Ozone], the “biocide efficacy (rank order, from cell number/3000 μm^2 and total cell area vs elapsed time)” value was “greatest”.
